Columns and labels:
Format in all cases: in vivo
[1] = tested on: scopolamine-induced amnesia; assay: Y-shaped maze test, spontaneous alternation behavior, scopolamine-induced amnesia; conditions: once orally 60 min before test, ddY mice
Method: Male mice (n=15 to 75) of the ddY strain (approximately 7-week old) were used, and they received food and water ad lib. Test substances used were 0.05 nmol/kg weight (0.1 μg/kg weight), 0.5 nmol/kg weight (1 μg/kg weight), 1.5 nmol/kg weight (3 μg/kg weight), 5 nmol/kg weight (10 μg/kg weight), 50 nmol/kg weight (100 μg/kg weight), and 500 nmol/kg weight (1000 μg/kg weight) of Asn-Ile-Pro-Pro-Leu-Thr-Gln-Thr-Pro-Val-Val-Val-Pro-Pro-Phe-Leu-Gln-Pro-Glu. The test substances were administered to the mice once orally 60 minutes before the execution of a Y-shaped maze test for evaluation of spontaneous alternation behavior. Further, 30 minutes before the execution of the Y-shaped maze test, 1 mg/kg weight of scopolamine was subcutaneously administered on the backs of the mice in order to induce brain dysfunction (dysmnesia and/or cognitive impairment) in the mice. In the Y-shaped maze test, a Y-shaped maze was used as an experimental device, in which the length of each arm was 40 cm, the height of the wall was 12 cm, the width of the floor was 3 cm, and the width of the upper part was 10 cm, and three arms were connected to each other at an angle of 120 degrees. Each of the mice was placed at the tip of any one of the arms of the Y-shaped maze, and then let go to freely explore in the maze for 8 minutes. The sequence of the arms each of the mice entered was recorded. The number of entries by each of the mice for each of the arms during the measurement time was counted to be the total number of entries. In the sequence, the combination in which three different arms were selected in succession (for example, with the three arms respectively called A, B, and C, if the sequence of the arms entered is ABCBACACB, the count is 4 inclusive of overlapping) was investigated, and the number of the count was used as the number of spontaneous alternation behavior. The percentage of spontaneous alternation behavior was calculated by dividing the number of spontaneous alternation behavior by a number obtained by subtracting 2 from the total number of entries, and multiplying a resultant number by 100. The percentage of spontaneous alternation behavior was used as an indicator. […] The measured values were expressed in the form of mean±standard error for each group. A significant difference between the control group and the scopolamine control group was calculated using Student's t-test. Further, a significant difference between the scopolamine control group and the NIPPLTQTPVVVPPFLQPE-administered groups was calculated using Dunnett's multiple comparison test after one-way analysis of variance.
Male mice (n=15 to 45) of the ddY strain (approximately 7-week old) were used, and they received food and water ad Iib. Test substances used were: 50 nmol/kg weight (100 μg/kg weight) of Asn-Ile-Pro-Pro-Leu-Thr-Gln-Thr-Pro-Val-Val-Val-Pro-Pro-Phe-Leu-Gln-Pro-Glu; 50 nmol/kg weight (120 μg/kg weight) of […]([…]); 50 nmol/kg weight (100 μg/kg weight) of Ile-Pro-Pro-Leu-Thr-Gln-Thr-Pro-Val-Val-Val-Pro-Pro-Phe-Leu-Gln-Pro-Glu (IPPLTQTPVVVPPFLQPE); 50 nmol/kg weight (100 μg/kg weight) of Asn-Ile-Pro-Pro-Leu-Thr-Gln-Thr-Pro-Val-Val-Val-Pro-Pro-Phe-Leu-Gln-Pro (NIPPLTQTPVVVPPFLQP) (SEQ ID NO: 18); and 50 nmol/kg weight (50 μg/kg weight) of Thr-Gln-Thr-Pro-Val-Val-Val-Pro-Pro-Phe (TQTPVVVPPF) (SEQ ID NO: 19). The test substances were administered to the mice once orally 60 minutes before the execution of a Y-shaped maze test for evaluation of spontaneous alternation behavior. Further, 30 minutes before the execution of the Y-shaped maze test, 1 mg/kg weight of scopolamine was subcutaneously administered on the backs of the mice in order to induce brain dysfunction (dysmnesia and/or cognitive impairment) in the mice. […]

[2] = tested on: scopolamine-induced amnesia; assay: as above; conditions: once orally 60 min before test, scopolamine 1 mg/kg s.c., ddY mice
memory maintenance = assay: novel object recognition test for evaluation of memory maintenance; conditions: Example 4, FIG. 4; 500 nmol/kg weight (1000 μg/kg weight), once orally 60 min before training trial; retention trial 48 hours later; ddY mice
Method: Male mice (n=14 to 15) of the ddY strain (approximately 7-week old) were used, and they received food and water ad lib. A test substance used was 500 nmol/kg weight (1000 μg/kg weight) of Asn-Ile-Pro-Pro-Leu-Thr-Gln-Thr-Pro-Val-Val-Val-Pro-Pro-Phe-Leu-Gln-Pro-Glu. The test substance was administered to the mice once orally 60 minutes before the execution of a novel object recognition test for evaluation of memory maintenance. In the novel object recognition test, a 30 cm x30 cm x30 cm box was used as an experimental device. For acclimation, each of the mice was placed in the experimental device with floor bedding for 5 minutes, and then allo the aminals to go around freely in the device. On the next day of the acclimation treatment, a training trial was performed. In the training trial, two among three kinds of objects were selected and disposed in the experimental device (the objects were arranged along the central line of the floor at positions 8 cm away from the walls on two sides, and the positions were designated as X1 and X2). […] In the training trial and the retention trial, the time (seconds) the mice spent exploring each object by approaching within 1 cm therefrom was measured (except the time when the mice were riding on the object). For each of the training trial and the retention trial, an exploration time ratio between the two objects was calculated. […]

[3] = Example 2, FIG. 2, 50 nmol/kg weight, scopolamine 1 mg/kg s.c., Dunnett's test vs scopolamine control
[4] = Example 6, FIG. 6, 500 nmol/kg weight, Student's t-test
[5] = Example 3, FIG. 3, 500 nmol/kg weight (1000 μg/kg weight), Dunnett's test

Row | Sequence | prophylactic activity against amnesia (percentage of spontaneous alternation behavior) [1, 3] | prophylactic activity against amnesia (percentage of spontaneous alternation behavior) [2, 4] | also measured
1 | IPPLTQTPVVVPPFLQPE (Synthetic functional peptide) [Ile-Pro-Pro-Leu-Thr-Gln-Thr-Pro-Val-Val-Val-Pro-Pro-Phe-Leu-Gln-Pro-Glu] | had a prophylactic activity against amnesia | – | –
2 | LTQTPVVVPPFLQPE (Synthetic functional peptide) [Leu-Thr-Gln-Thr-Pro-Val-Val-Val-Pro-Pro-Phe-Leu-Gln-Pro-Glu] | – | had a prophylactic activity against amnesia | –
3 | NIPPLTQTPVVVPPFLQP (Synthetic comparative example) [Asn-Ile-Pro-Pro-Leu-Thr-Gln-Thr-Pro-Val-Val-Val-Pro-Pro-Phe-Leu-Gln-Pro] | did not show any prophylactic activity against amnesia | – | –
4 | NIPPLTQTPVVVPPFLQPE (Synthetic functional peptide) [Asn-Ile-Pro-Pro-Leu-Thr-Gln-Thr-Pro-Val-Val-Val-Pro-Pro-Phe-Leu-Gln-Pro-Glu] | had a prophylactic activity against amnesia | – | prophylactic activity against amnesia (percentage of spontaneous alternation behavior) [2, 5]: had a prophylactic activity against amnesia; memory strengthening activity (exploration time ratio of novel object) (memory maintenance): had a memory strengthening activity; prophylactic activity against amnesia (percentage of spontaneous alternation behavior) ([1]; Example 1, FIG. 1, 0.05 nmol/kg weight to 500 nmol/kg weight (0.1 to 1000 μg/kg weight), scopolamine 1 mg/kg s.c. 30 min before, Dunnett's test): had a prophylactic activity against amnesia
5 | NIPPLTQTPVVVPPFLQPEVM (Synthetic functional peptide) | had a prophylactic activity against amnesia | – | –
6 | PLTQTPVVVPPFLQPE (Synthetic functional peptide) [Pro-Leu-Thr-Gln-Thr-Pro-Val-Val-Val-Pro-Pro-Phe-Leu-Gln-Pro-Glu] | – | had a prophylactic activity against amnesia | –
7 | PPLTQTPVVVPPFLQPE (Synthetic functional peptide) [Pro-Pro-Leu-Thr-Gln-Thr-Pro-Val-Val-Val-Pro-Pro-Phe-Leu-Gln-Pro-Glu] | – | – | prophylactic activity against amnesia (percentage of spontaneous alternation behavior) [2, 5]: had a prophylactic activity against amnesia
8 | PVVVPPFLQPE (Synthetic functional peptide) [Pro-Val-Val-Val-Pro-Pro-Phe-Leu-Gln-Pro-Glu] | – | had a prophylactic activity against amnesia | –
9 | TQTPVVVPPF (Synthetic comparative example) [Thr-Gln-Thr-Pro-Val-Val-Val-Pro-Pro-Phe] | did not show any prophylactic activity against amnesia | – | –
10 | TQTPVVVPPFLQPE (Synthetic functional peptide) [Thr-Gln-Thr-Pro-Val-Val-Val-Pro-Pro-Phe-Leu-Gln-Pro-Glu] | – | – | prophylactic activity against amnesia (percentage of spontaneous alternation behavior) ([2]; Example 5, FIG. 5, 50 nmol/kg weight (80 μg/kg weight), Student's t-test): had a prophylactic activity against amnesia
11 | VVVPPFLQPE (Synthetic functional peptide) [Val-Val-Val-Pro-Pro-Phe-Leu-Gln-Pro-Glu] | – | had a prophylactic activity against amnesia | –
